This passage reports IC50 and EC50 results from ChEMBL document CHEMBL5209897, “Affinity Phenotypic Cellular Literature for EUbOPEN Chemogenomics Library wave 3” (2023).

Assay [1] addresses T1, Calcium/calmodulin-dependent protein kinase kinase 2 (Homo sapiens, UniProt Q96RR4). Nature of the assay: Affinity Phenotypic Cellular interaction (Western Blot (downstream phosphorylation of AMPK in C4-2 cells)) EUB0000168b CAMKK2. It is filed as cell-based. More on the design: mode of action Negative control for SGC-CAMKK2-1 (UNC-YL-36), recommended concentration 1 uM. In general terms: Immunoblotting shows a protein as a band on a membrane.

Assay [2] concerns the target B-cell lymphoma 6 protein (Homo sapiens, UniProt P41182). Nature of the assay: Affinity Phenotypic Cellular interaction (Inhibition of BCL6 co-repressor (BCoR, M2H assay/Bright-Glo luciferase assay in HEK293T cells, Promega)) EUB0000316c BCL6. It is filed as cell-based. The arrangement: mode of action Inhibitor, recommended concentration 1 uM.
In assay [3] the target is T2, Mitogen-activated protein kinase 11 (Homo sapiens, UniProt Q15759). Nature of the assay: Affinity Phenotypic Cellular interaction (TNF-a release (stimmulated by LPS in human WB)) EUB0000718a MAPK11. Type of assay: functional. The arrangement: mode of action Inhibitor, recommended concentration 1 uM.
Assay [4] concerns the target T3, Activin receptor type-1B (Homo sapiens, UniProt P36896). In words: Affinity Phenotypic Cellular interaction (Western blot (inhibition of SMAD2/3 phosphorylation)) EUB0000710a ACVR1B.
The target in another assay is TGF-beta receptor type-1 (Homo sapiens, UniProt P36897). Nature of the assay: Affinity Phenotypic Cellular interaction (Western blot (inhibition of SMAD2/3 phosphorylation)) EUB0000710a TGFBR1.
Assay [5] has as its target T3, Activin receptor type-1B. Nature of the assay: Affinity Phenotypic Cellular interaction (Western blot (inhibition of SMAD2/3 phosphorylation)) EUB0000312b ACVR1B. The arrangement: mode of action Inhibitor, recommended concentration 1 uM.
The nature of assay [6]: Affinity Phenotypic Cellular interaction (Proliferation assay (CellTiter-Glo ATP assay in human lung H1299 cells)) EUB0000752a NDUFS2.
The target in assay [7] is Methionine aminopeptidase 2 (Homo sapiens, UniProt P50579). Nature of the assay: Affinity Phenotypic Cellular interaction (Western Blot (acumulation of Nmet14-3-3gamma in HUVEC cells)) EUB0000303b METAP2. More on the design: mode of action Inhibitor, recommended concentration 1 uM. It is filed as cell-based.
The target in assay [8] is T2, Mitogen-activated protein kinase 11.
Assay [9] deals with Inhibitor of nuclear factor kappa-B kinase subunit epsilon (Homo sapiens, UniProt Q14164).
The target in assay [10] is Serine/threonine-protein kinase TBK1 (Homo sapiens, UniProt Q9UHD2).
Assay [11] addresses T4, Presenilin-1 (Homo sapiens, UniProt P49768). Nature of the assay: Affinity Phenotypic Cellular interaction (Abeta42 inhibition assay (electrochemiluminescent detection of peptides secreted by SH-SY5Y cells stably overexpressing the APP C-terminal fragment SPA4CT)) EUB0000739a PSEN1. More on the design: mode of action Negative control for GSM1, recommended concentration 1 uM.

The target in assay [12] is T2, Mitogen-activated protein kinase 11. In words: Affinity Phenotypic Cellular interaction (TNF-a release (stimmulated by LPS in human WB)) EUB0000711a MAPK11. It is filed as functional. The arrangement: mode of action Negative control for SR318, recommended concentration 1 uM.
Assay [13] addresses Mitogen-activated protein kinase 14 (Homo sapiens, UniProt Q16539). Nature of the assay: Affinity Phenotypic Cellular interaction (TNF-a release (stimmulated by LPS in human WB)) EUB0000711a MAPK14. Type of assay: functional. More on the design: mode of action Negative control for SR318, recommended concentration 1 uM.
Assay [14] has as its target 5'-AMP-activated protein kinase catalytic subunit alpha-1 (Homo sapiens, UniProt Q13131). In words: Affinity Phenotypic Cellular interaction (Cellular mechanistic pACC assay using IMR-32 neuroblastoma cells) EUB0000707a PRKAA1. Type of assay: functional. The arrangement: mode of action Negative control for BAY-3827, recommended concentration 100 nM.
For assay [15], the target named is Ribosomal protein S6 kinase alpha-1 (Homo sapiens) (UniProt Q15418). Nature of the assay: Affinity Phenotypic Cellular interaction (Cellular mechanistic pACC assay using IMR-32 neuroblastoma cells) EUB0000707a RPS6KA1.
Assay [16] addresses T4, Presenilin-1. In words: Affinity Phenotypic Cellular interaction (Abeta40 inhibition assay (in SH-SY5Y (SP4CT) cells; APP as target)) EUB0000750a PSEN1. It is filed as cell-based. The arrangement: mode of action Inhibitor, recommended concentration 100 nM.
For assay [17], the target named is T4, Presenilin-1. Nature of the assay: Affinity Phenotypic Cellular interaction (Abeta40 inhibition assay (in SH-SY5Y (SP4CT) cells; APP as target)) EUB0000741a PSEN1. Type of assay: cell-based. More on the design: mode of action Negative control for MRK-560, recommended concentration 100 nM.
Assay [18] has as its target T1, Calcium/calmodulin-dependent protein kinase kinase 2. Nature of the assay: Affinity Phenotypic Cellular interaction (Western Blot (downstream phosphorylation of AMPK in C4-2 cells)) EUB0000167b CAMKK2. It is filed as cell-based. The arrangement: mode of action Inhibitor, recommended concentration 1 uM.

The structures appear in SMILES notation.

T2 sequence (Q15759 whole entry): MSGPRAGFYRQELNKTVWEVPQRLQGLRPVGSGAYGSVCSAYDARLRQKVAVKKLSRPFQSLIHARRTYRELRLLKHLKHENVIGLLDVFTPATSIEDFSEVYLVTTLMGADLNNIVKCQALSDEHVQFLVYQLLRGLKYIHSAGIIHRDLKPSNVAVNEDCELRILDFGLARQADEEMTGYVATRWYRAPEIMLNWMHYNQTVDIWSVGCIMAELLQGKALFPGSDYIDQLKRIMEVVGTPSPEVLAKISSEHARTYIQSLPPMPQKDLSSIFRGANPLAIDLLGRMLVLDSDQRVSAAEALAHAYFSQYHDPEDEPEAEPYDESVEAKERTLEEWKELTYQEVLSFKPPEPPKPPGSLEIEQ
T3 sequence (P36896 whole entry): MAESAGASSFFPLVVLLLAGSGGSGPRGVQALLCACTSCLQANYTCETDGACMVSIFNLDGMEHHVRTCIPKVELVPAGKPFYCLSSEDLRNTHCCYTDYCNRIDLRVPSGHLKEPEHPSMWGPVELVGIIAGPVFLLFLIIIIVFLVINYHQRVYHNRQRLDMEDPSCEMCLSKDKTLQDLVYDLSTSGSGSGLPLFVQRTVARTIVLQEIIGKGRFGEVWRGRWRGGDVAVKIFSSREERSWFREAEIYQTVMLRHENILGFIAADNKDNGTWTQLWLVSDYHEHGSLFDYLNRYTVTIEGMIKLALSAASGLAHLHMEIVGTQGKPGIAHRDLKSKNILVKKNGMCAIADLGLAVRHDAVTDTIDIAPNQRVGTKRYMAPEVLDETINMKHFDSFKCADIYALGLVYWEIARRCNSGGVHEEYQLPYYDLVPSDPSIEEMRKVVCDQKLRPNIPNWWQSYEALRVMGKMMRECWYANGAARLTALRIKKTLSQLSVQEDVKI
T1 sequence (Q96RR4 whole entry): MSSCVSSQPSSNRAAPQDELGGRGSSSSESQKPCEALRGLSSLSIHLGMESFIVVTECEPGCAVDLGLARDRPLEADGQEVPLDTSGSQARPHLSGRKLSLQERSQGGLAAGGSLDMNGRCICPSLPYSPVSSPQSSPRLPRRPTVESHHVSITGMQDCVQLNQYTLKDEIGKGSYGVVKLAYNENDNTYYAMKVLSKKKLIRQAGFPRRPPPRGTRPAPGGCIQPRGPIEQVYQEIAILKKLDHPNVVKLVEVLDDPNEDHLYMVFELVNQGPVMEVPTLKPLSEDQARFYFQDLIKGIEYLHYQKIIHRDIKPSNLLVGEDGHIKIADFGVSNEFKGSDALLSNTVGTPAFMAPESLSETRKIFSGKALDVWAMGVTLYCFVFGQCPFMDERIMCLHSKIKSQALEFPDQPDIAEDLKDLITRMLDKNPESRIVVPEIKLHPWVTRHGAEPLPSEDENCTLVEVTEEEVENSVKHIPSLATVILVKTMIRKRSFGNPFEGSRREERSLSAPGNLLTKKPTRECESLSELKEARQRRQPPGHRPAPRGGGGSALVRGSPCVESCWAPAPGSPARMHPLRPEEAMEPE
Methionine aminopeptidase 2, sequence (P50579 whole entry): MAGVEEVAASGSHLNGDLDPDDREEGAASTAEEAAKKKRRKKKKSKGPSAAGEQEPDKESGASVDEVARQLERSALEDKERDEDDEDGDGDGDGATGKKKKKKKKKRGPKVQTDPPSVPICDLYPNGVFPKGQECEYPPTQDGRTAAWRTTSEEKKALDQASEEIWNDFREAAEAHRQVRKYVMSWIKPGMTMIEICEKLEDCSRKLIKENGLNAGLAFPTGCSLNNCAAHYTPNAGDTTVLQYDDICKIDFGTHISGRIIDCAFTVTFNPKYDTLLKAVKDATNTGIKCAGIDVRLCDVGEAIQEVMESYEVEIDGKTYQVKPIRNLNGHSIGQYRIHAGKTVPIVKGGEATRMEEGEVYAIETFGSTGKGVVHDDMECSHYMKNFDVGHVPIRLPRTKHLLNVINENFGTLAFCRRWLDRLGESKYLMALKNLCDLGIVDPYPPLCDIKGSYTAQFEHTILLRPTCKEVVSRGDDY
Ribosomal protein S6 kinase alpha-1 (Homo sapiens), sequence (Q15418 whole entry, looked up): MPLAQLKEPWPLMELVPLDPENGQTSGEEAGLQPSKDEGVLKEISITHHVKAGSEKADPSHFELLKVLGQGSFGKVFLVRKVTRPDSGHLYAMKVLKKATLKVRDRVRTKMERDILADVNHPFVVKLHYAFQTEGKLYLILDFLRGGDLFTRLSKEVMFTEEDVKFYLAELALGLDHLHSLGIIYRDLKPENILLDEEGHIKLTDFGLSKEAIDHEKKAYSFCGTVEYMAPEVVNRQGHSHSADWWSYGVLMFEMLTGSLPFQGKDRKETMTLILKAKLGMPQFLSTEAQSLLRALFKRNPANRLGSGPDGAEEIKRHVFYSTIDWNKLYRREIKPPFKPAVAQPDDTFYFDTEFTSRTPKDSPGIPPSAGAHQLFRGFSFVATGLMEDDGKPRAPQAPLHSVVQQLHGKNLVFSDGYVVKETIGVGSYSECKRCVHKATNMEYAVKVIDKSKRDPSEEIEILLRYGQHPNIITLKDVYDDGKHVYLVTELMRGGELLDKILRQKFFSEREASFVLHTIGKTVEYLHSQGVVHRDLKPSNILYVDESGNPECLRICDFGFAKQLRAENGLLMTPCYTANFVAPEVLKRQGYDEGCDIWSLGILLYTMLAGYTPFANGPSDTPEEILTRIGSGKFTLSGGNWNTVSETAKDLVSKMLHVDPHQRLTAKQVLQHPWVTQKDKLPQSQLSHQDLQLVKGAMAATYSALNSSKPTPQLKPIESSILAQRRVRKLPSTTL
Inhibitor of nuclear factor kappa-B kinase subunit epsilon, sequence (Q14164 whole entry): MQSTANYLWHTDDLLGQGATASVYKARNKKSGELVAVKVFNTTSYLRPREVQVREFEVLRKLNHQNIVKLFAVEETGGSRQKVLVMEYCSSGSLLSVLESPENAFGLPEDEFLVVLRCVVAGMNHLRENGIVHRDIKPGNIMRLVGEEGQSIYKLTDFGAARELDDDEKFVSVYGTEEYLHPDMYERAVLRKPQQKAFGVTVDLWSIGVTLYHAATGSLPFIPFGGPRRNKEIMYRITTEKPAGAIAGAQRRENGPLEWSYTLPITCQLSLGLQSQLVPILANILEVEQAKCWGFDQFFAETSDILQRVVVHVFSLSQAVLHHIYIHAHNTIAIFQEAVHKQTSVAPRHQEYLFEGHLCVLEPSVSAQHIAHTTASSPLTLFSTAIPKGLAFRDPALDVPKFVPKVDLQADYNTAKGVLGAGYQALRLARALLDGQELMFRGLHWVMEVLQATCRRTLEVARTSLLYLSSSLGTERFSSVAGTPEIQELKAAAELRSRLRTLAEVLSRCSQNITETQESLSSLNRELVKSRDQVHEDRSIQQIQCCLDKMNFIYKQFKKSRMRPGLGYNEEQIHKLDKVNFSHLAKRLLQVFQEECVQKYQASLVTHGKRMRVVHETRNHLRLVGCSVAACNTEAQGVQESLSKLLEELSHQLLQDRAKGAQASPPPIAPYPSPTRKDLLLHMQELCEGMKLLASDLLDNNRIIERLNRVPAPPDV
5'-AMP-activated protein kinase catalytic subunit alpha-1, sequence (Q13131 whole entry): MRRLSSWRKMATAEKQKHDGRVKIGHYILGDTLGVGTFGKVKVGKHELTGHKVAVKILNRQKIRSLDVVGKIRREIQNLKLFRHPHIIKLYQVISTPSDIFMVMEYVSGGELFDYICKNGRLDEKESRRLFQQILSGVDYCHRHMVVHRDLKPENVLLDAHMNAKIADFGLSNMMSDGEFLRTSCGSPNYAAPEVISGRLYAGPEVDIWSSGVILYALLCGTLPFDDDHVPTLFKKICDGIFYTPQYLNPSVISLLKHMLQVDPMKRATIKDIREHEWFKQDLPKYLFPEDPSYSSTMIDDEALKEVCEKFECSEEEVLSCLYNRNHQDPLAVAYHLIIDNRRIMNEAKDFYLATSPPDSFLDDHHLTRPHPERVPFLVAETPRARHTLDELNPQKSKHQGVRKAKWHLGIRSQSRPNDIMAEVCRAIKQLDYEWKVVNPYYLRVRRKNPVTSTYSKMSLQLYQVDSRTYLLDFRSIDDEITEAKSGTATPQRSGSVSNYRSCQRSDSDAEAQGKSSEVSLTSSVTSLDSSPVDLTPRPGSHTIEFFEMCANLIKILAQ
Serine/threonine-protein kinase TBK1, sequence (Q9UHD2 whole entry, the tested form may be a part): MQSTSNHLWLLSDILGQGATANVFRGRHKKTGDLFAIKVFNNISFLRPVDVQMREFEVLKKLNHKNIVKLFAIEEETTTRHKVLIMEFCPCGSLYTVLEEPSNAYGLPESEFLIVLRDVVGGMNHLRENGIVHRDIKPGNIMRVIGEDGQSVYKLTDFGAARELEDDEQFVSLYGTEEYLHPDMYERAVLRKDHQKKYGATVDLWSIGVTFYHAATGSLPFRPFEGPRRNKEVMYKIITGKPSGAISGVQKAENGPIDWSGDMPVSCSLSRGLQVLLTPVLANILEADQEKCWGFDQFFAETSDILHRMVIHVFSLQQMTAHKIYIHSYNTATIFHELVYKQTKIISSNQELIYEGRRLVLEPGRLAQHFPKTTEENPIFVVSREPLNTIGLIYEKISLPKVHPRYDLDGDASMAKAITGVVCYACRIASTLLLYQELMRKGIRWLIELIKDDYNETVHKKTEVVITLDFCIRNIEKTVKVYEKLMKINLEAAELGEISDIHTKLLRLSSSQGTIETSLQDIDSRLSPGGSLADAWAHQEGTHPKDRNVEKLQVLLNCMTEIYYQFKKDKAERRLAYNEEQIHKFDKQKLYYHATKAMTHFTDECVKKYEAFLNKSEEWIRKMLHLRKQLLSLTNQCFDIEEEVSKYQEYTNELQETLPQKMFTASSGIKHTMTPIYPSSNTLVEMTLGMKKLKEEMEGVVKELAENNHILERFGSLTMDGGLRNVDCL

For the molecule `O=C(O)c1ccc(-c2coc3ncc(-c4ccccc4)cc23)cc1Cl`, the IC50 – broadly, the concentration that inhibits the measured activity by half – in assay [1] was above 10000 nM.

For `O=C1CCc2cc(Nc3cc(OC4CCOCC4)c([N+](=O)[O-])cc3Cl)ccc2N1`, in [2], the IC50 is 720 nM. As to `O=C(NCCN1CCOCC1)c1ccc2c(c1)C(=O)c1ccc(Nc3ccc(F)c(NC(=O)c4ccccc4)c3)cc1CC2` [FS-694], the midpoint of inhibition in assay [3], the IC50, lay at 38 nM. With `Cc1cnc(-c2cc(Cl)ccc2F)cc1-n1c(=O)n(CC(N)=O)c2ccccc21` [Al11], the EC50 on Activin receptor type-1B [4] and at TGF-beta receptor type-1 was above 10000 nM in each case.

In the case of `Cc1cnc(-c2cc(Cl)ccc2F)cc1-n1c(=O)n(CC(N)=O)c2cnccc21` [TP-008], the EC50 (usually the concentration needed to bring the measured effect to its halfway point) at Activin receptor type-1B [5] is above 1000 nM.

In [6], `c1ccc2oc(-c3csc(C4CCN(Cc5nc6ncccc6[nH]5)CC4)n3)cc2c1` displayed an IC50 of 33 nM. In turn, `Cc1nc(N2CC[C@H](O)C2)ncc1-c1cc(C(F)(F)F)cc2[nH]ncc12` gave an EC50 in assay [7] of 15 nM. On to `O=C1c2ccc(Nc3ccc(F)cc3F)cc2CCc2ccc(OC[C@H](O)CO)cc21` [Skepinone-L], for which half-maximal inhibition in assay [8] (IC50) required 25 nM. As for `C[C@H](c1ccnc(Nc2nc3ccc(-c4cc(N(C)C)ncn4)cc3[nH]2)c1)N1CCN(C(=O)CC(F)(F)F)CC1` [BAY-985], the IC50 in assay [9] and in assay [10] was 74 nM throughout. `COc1cc(-c2cn([C@H]3CCc4ccccc4N(CC(F)(F)F)C3=O)nn2)ccc1-n1ccc(C)n1` displayed an IC50 at Presenilin-1 [11] above 10000 nM. Turning to `O=C(NCCCC1CCCCC1)c1ccc(CNC(=O)c2cnn(-c3ccccc3)c2C(F)(F)F)cc1` [SR-321], the IC50 in assay [12] and in assay [13] was above 10000 nM throughout.

For the molecule `CC1=C(C#N)C(c2ccc3c(c2)c(NC(=O)c2ccccc2C)nn3C)C(C#N)=C(C)N1` [BAY-974], the IC50 in assay [14] and in [15] was above 30000 nM throughout. The molecule `O=S(=O)(NC1CCC(c2cc(F)ccc2F)(S(=O)(=O)c2ccc(Cl)cc2)CC1)C(F)(F)F` (centres undefined) [MRK-560] had an IC50 against Presenilin-1 [16] below 0.5 nM.

For the molecule `CC(C)(C)OC(=O)N1CCCC1CNC1CCC(c2cc(F)ccc2F)(S(=O)(=O)c2ccc(Cl)cc2)CC1` (centres undefined) [GSI-NC], the IC50 against Presenilin-1 [17] came out at 1600 nM. In the case of `Cc1cccc(-c2cnc3occ(-c4ccc(C(=O)O)c(C5CCCC5)c4)c3c2)c1`, the IC50 in assay [18] worked out at 1600 nM.
